According to patent US20210393588A1, “READY TO USE I[…] OF BR[…] SALT THEREOF” (Zenvision Pharma LLP, priority 2018, published 2021):
Read-outs that look alike come from different tables or passages of the source.

Key:
[1] = Storage stability of aqueous solutions of Brivaracetam; type: physicochemical; settings: aqueous solution
Description: Also degradation products in solution are formed due to oxidation, pH ranges.

[2] = cited from earlier work

CCC[C@@H]1CC(=O)N([C@@H](CC)C(N)=O)C1 [Brivaracetam, (2S)-2-[(4R)-2-oxo-4-propyltetrahydro-1H-pyrrol-1-yl]butanamide]
Stability during storage [1]: partially unstable | Solubility ([2]; acetone): freely soluble | Solubility ([2]; acetonitrile): freely soluble | Solubility ([2]; buffer (pH 1.2, 4.5, and 7.4)): very soluble | Solubility ([2]; ethanol): very soluble | Solubility ([2]; glacial acetic acid): very soluble | Solubility ([2]; methanol): very soluble | Solubility ([2]; n-hexane): very slightly soluble | Solubility ([2]; toluene): soluble | Solubility ([2]; water): very soluble
